For two compounds, ED50 results are on record in ChEMBL document CHEMBL5226298, “Chemoenzymatic Synthesis of 5-Methylpsilocybin: A Tryptamine with Potential Psychedelic Activity” (2021).

For test [1], the system named is Mus musculus. Kind of test: Induction of psychedelics activity in C57BL/6J mouse assessed as head-twitch response at upto 10 mg/kg, ip measured for 30 min. Format: functional. The conditions noted are these: 0.5 h.
Test [2] relates to Mus musculus. The test can be described thus: Induction of psychedelics activity in mouse assessed as head-twitch response at upto 10 mg/kg, ip measured for 30 min. The conditions noted are these: 0.5 h. The format is functional.

Broadly, the ED50 is the dose at which the effect has come halfway, by size or by number of responders. On to `CN(C)CCc1c[nH]c2ccccc12` [N,N-DIMETHYLTRYPTAMINE], for which the ED50 in the test on Mus musculus [1] was 5.05 µmol/kg.

As for `Cc1ccc2[nH]cc(CCN(C)C)c2c1OP(=O)(O)O`, the ED50 with Mus musculus [2] is 1.23 mg/kg.
